In US10874652B2, “Muscle regeneration” (The Research Foundation for The State University of New York, priority 2016, dated 2020):

Assays:
dystrophic (mdx4cv) mice [1] = test: Muscle fibre size (minimum Feret diameter) in dystrophic mice; type: in vivo, mouse; details: 200 mg/Kg intraperitoneally twice a week, 12 weeks, gastrocnemius muscle, vs saline
Experimental: To test whether inhibition of elastase activity promoted muscle regeneration in vivo in dystrophic mice, dystrophic (mdx4cv strain) mice were treated with either the elastase inhibitor Elastatinal (dissolved in saline solution) or saline solution for 12 weeks and muscle fibre size was assayed.
Elastatinal (Enzo Life Sciences) was dissolved in a saline solution (0.9% NaCl) to the concentration of 20 mg/mL and then, either 200 mg/Kg body weight of Elastatinal or an equal volume of saline solution were injected twice a week intraperitoneally into the dystrophic (mdx4cv) mice. After 12 weeks of treatment animals were culled and several muscles dissected, embedded in Optimal Cutting Medium (OCT, Fisher) and frozen in liquid nitrogen-cooled isopentane (Sigma) for histopathological analysis.
To measure the extent of muscle regeneration, myofibre size was estimated. Sections of the gastrocnemius muscle of either Elastatinal-treated or saline-treated mice were immunostained to detect laminin which marks the periphery of each muscle fibre and then the programme SMASH′ was used to calculate the minimum Feret diameter as a direct measure of myofibre size.

elastase = test: Elastase activity in cell culture medium (fluorescent substrate cleavage); type: biochemical; details: 100 μM inhibitor, 0.75 U/mL purified elastase pre-incubated 1 hour
Experimental: The percentage of substrate cleavage (substrate conversion to product) was monitored over time by recording product formation every minute for 30 minutes (30 cycles of instrument recording) using a Pierce EZ-Reader.

dystrophic (mdx4cv) mice [2] = test: Muscle fibrosis, Picrosirius red staining of gastrocnemius muscle; type: in vivo, mouse; details: 200 mg/kg, 12 weeks, vs saline
Experimental: (§1) The objective of this experiment was to determine whether elastase inhibitors can reduce inflammation and/or fibrosis. To test this, cross-sections of the gastrocnemius muscle of mice that were treated with either Elastatinal or saline solution were stained with Picrosirius red, or labelled with an anti-CD45 antibody or an anti-laminin antibody. Picrosirius red allows to differentiate between collagen and the rest of the tissue as it stains the collagen a different colour. The anti-CD45 antibody allows the detection of infiltrating leukocytes (which are a marker of inflammation), and the anti-laminin antibody allows the detection of the periphery of myofibres. Both, the amount of fibrosis and the amount of infiltrated CD45+ leukocytes were reduced with Elastatinal treatment, supporting the hypothesis that elastase activity inhibition reduces fibrosis and inflammation.
(§2) For this experiment, the mice were treated with an injection of 200 mg/kg of Elastatinal dissolved in a saline solution (0.9% NaCl) to a concentration of 20 mg/mL. Control mice were treated with an equal volume of saline. […]
The amount of Picrosirius red staining was quantified by selecting re pixels and quantifying the red area using the ImageJ function “Analyze particles”. Averages of 10 technical replicates for each one of 3 biological replicates (N=30) were analysed (FIG. 10 B).

dystrophic (mdx4cv) mice [3] = test: Muscle inflammation, CD45+ leukocyte infiltration of gastrocnemius muscle; type: in vivo, mouse; details: 200 mg/kg, 12 weeks, vs saline
Experimental: as §1, §2
To measure the extent of inflammation, the numbers of infiltrating leucocyte, recognized by immunostaining for CD45 (BD Biosciences) were scored as percentage of area positive to CD45 immunostaining using a written script for Fiji softwate (available at http://fiji.sc) (FIG. 10 D).

dystrophic (mdx4cv) mice [4] = test: Grip strength, Kondziela's inverted screen test in dystrophic mice; type: in vivo, mouse
Experimental: To test whether elastase inhibition is effective in counteracting the devastating effects of the muscular dystrophy symptoms, we injected dystrophic (mdx4cv) mice with either 100 mg/Kg body weight of Elastatinal dissolved in sterile saline solution (0.9% […]) or with vehicle (sterile saline solution) alone (n=3) twice a week for 6 weeks then measured the grip strength of all 4 limbs using Kondziela's inverted screen test. Each animal was offered three attempts to reach 90 seconds of grip before falling then the best performance was assigned a score (1 to 6 for every 15 seconds spent on the grid, e.g.: 1-14 seconds=score 1, 15-29 seconds=score 2, etc.). Scores were averaged and plotted as mean±the standard error of the mean.
In addition to the above mentioned experiment, Elastatinal was dissolved in a saline solution (0.9% NaCl) to a concentration of 20 mg/mL and then either 200 mg/Kg body weight of Elastatinal or an equal volume of saline solution were injected twice a week for 12 weeks intraperitoneally into dystrophic (mdx4cv) mice. At 8, 10 and 12 weeks of treatment, muscle function (grip strength) of the mice was measured using Kondziella's inverted screen test. A 1-6 score was assigned for every 15 seconds of the total time spent by the mouse on the inverted grid such that a score of 6 indicates at least 90 seconds of latency to fall. […] Error bars are S.E.M. **=p<0.01.

myoblasts = test: Elastase-induced myoblast cell loss ex vivo; type: cell-based; details: 100 μM inhibitor with 0.75 U/mL elastase, 24 hours, myoblasts on uncoated plates
Experimental: In order to determine the effect of elastase inhibitors on cultures myoblasts, myoblasts were seeded at the density of 7,000 cells/well in 12 multi-well plates (Corning) and grown for 1 day in growth medium. Twenty-four hours after plating, 0.75 U/mL of purified elastase (Sigma Aldrich) were added to the culture medium in the absence (Ela) or presence of either 100 μM Sivelestat (Ela+Sivelestat) or 100 μM Elastatinal (Ela+Elastatinal) and cultured for additional 24 hours. Quantification of total cell numbers per image was done in triplicates and plotted as average±standard error of the mean. NT=non-treated cultures, that received neither elastase nor elastase inhibitors. **=p<0.01.

| Compound | muscle fibre size (minimum Feret diameter) (dystrophic (mdx4cv) mice [1]) | reduction of elastase activity (elastase) | amount of fibrosis (dystrophic (mdx4cv) mice [2]) | amount of infiltrated CD45+ leukocytes (dystrophic (mdx4cv) mice [3]) | muscle strength (grip strength) (dystrophic (mdx4cv) mice [4]; 100 mg/Kg twice a week for 6 weeks, vs vehicle) | grip strength (dystrophic (mdx4cv) mice [4]; 200 mg/Kg intraperitoneally twice a week for 12 weeks, measured at 8, 10 and 12 weeks, vs saline) | elastase-induced cell loss (myoblasts) |
| --- | --- | --- | --- | --- | --- | --- | --- |
| CC(C)C[C@H](NC(=O)N[C@H](C(=O)N[C@@H](CCC(N)=O)C(=O)N[C@@H](C)C=O)[C@@H]1CCNC(=N)N1)C(=O)O [Elastatinal] | increasing muscle fibre size | approximately 80% | reduced | reduced | improved muscle strength | statistically significantly improved grip strength | prevents elastase-induced cell loss |
| CC(C)(C)C(=O)Oc1ccc(S(=O)(=O)Nc2ccccc2C(=O)NCC(=O)O)cc1 [Sivelestat] | – | approximately 80% | – | – | – | – | prevents elastase-induced cell loss |
